Legend:
[1] = test system: iNOS; test: iNOS protein immunoblot in hepatocytes; format: cell-based; details: TNF-α/ActD 6-8 hr in presence of CO 250 ppm vs TNF-α alone
Procedure: (§1) Western blot analysis was performed on primary hepatocytes in culture or from liver homogenates with antibodies to iNOS (Transduction Laboratories, Lexington, Ky.; 1:1000), HO-1 (Calbiochem; 1:2000), or β-actin (Sigma Chemical; 1:5000). Thirty μg protein in cell culture experiments or 100 μg protein from liver homogenates was loaded per well for SDS-PAGE.
To generate the data in FIG. 8, expression of iNOS protein was evaluated using immunoblotting techniques. Briefly, cell extracts from hepatocytes were treated with TNF-α/ActD for 6-8 hr in the presence and absence of CO (250 ppm). Control cells received air or CO alone.

[2] = test system: acetaminophen-induced liver injury; test: Acetaminophen (APAP)-induced hepatitis model; format: in vivo, mice
Procedure: The animals were exposed to CO at a concentration of 250 ppm. […] Mice were placed in the exposure chamber as required.
To generate the data in FIG. 21, Male C57BL/6J mice were exposed to CO (250 ppm) either 1 hr prior or 4 hr post administration of APAP (500 mg/kg, i.p.). The mice were then maintained in CO for the duration of the experiment. Serum ALT levels were determined 20 hr after APAP administration. Control mice received APAP and were maintained in air. This protocol was designed to allow hepatitis to develop for four hours before administering CO.

[3] = test system: TNF-α/D-gal-induced liver injury
Procedure: Male C57BL/6J ([…], Bar Harbor, Me.), 8-12-wk-old inos^−/− mice and wild type littermates (bred/maintained at the University of Pittsburgh) were used for in vivo experiments.
10 mg/kg subcutaneously (s.c.), Alexis Biochem., San Diego, Calif.) or cobalt protoporphyrin (CoPP, 5 mg/kg, intraperitoneally (i.p.), Frontier Scientific, Logan, Utah). […] Where indicated, acetaminophen (Sigma Chem. Co.; St Louis, Mo.) was administered (500 mg/kg, i.p.).
A CO analyzer (Interscan, Chatsworth, Calif.) was used to measure CO levels continuously in the chamber. CO concentrations were maintained at 250 ppm at all times. Mice were placed in the exposure chamber as required.
Whether HO-1 is protective against acute hepatic failure was investigated. Cobalt protoporphyrin (5 mg/kg, i.p.) was administered to male C57BL/6J mice. Twenty-four hours later, TNF-α/D-gal (0.3 μg/8 mg/mouse, i.p., respectively) was administered to the mice. Serum alanine aminotransferase (ALT) levels in the mice were measured 8 hours after administration of TNF-α/D-gal.
After receiving TNF-α/D-gal, mice were returned to the CO exposure chamber and their serum was analyzed for ALT levels 6-8 hr later.
To generate the data presented in FIGS. 11A-11H, liver samples from mice treated with TNF-α/D-gal in the presence and absence of CO (250 ppm) for 8 hr were sectioned and stained for hematoxylin & eosin (H&E), activated caspase 3 (as indicated by an increase in red intensity), and for TUNEL positive cells (as demarcated by the increased green cellular staining; a marker of cell death). Nuclei stained blue.
L-NIL was administered 2 hr prior to CO. CO-treated animals were then pre-treated (250 ppm) for 1 hr prior to TNF-α/D-gal.
VP was selectively designed to deliver NO directly to the liver. One hour after the initial VP dose, the animals were exposed to CO for 1 hr prior to administration of TNF-α/D-gal (see above). Serum ALT levels were determined 6-8 hr later.
These mice and inos^−/− mice were then administered CoPP. L-NIL was maintained in the water throughout the experiment. Control and inos^−/− mice received normal drinking water. Twenty-four hr after administration of CoPP, TNF-α/D-gal was administered and serum ALT determined 6-8 hr later.

[4] = test system: primary rat hepatocytes; test: TNF-α induced apoptosis in rat hepatocytes; format: cell-based; details: exposure to CO
Procedure: Cells were treated with TNF-α (10 ng/ml) and actinomycin-D (Act-D; 200 ng/ml, Sigma Chemical Co. St. Louis, Mo.) to induce cell death.
Thus, the effects of CO were independent of the cGMP/p38 MAPK pathway. In these experiments, hepatocytes were pre-treated with CO for one hour prior to addition of TNF-α/ActD to the medium.

[5] = test system: iNOS; test: Liver iNOS expression (immunoblot, immunostaining); format: in vivo, mice
Procedure: as §1
For histology and immunohistochemistry, livers were fixed in 2% paraformaldehyde and then snap frozen in liquid nitrogen. Livers were then sectioned (7 microns thick) and stained with hematoxylin and eosin (H&E). Liver sections were also stained for TUNEL and activated caspase-3 using kits according to the manufacturer's instructions (Promega). Sections for iNOS immunocytochemistry were blocked with 5% goat serum containing 0.2% bovine serum albumin. Thereafter, sections were incubated for 1 hour at room temperature with anti-iNOS antibody (Transduction Laboratories; 1:300), then washed and probed with a secondary antibody conjugated to Alexa-488 (Molecular Probes, Eugene, Oreg.). Nuclei were stained with Hoechst dye. Images were acquired using an Olympus Provus microscope. Hepatocytes in culture were plated on gelatinized coverslips, stimulated as indicated, and then fixed in 2% paraformaldehyde containing 0.1% Triton X-100. […]

[6] = CO 250 ppm for 8 hr, TNF-α/D-gal

[C-]#[O+] [CO, carbon monoxide]
iNOS protein [1]: markedly increased
Protection with CO pre-treatment prior to APAP compared with post-treatment ([2]; CO 250 ppm 1 hr prior to APAP): protection was similar
Serum ALT ([2]; CO 250 ppm from 4 hr post APAP 500 mg/kg i.p., 20 hr after APAP, controls 622±44): 175±137
Reduction in liver injury ([2]; CO 4 hours after APAP 500 mg/kg i.p.): 62%
TNF-α/D-gal-induced liver damage by H&E staining ([3]; CO 250 ppm for 8 hr): markedly reduced
Staining of activated caspase-3 in liver [3, 6]: less staining
TUNEL positive cells in liver [3, 6]: fewer TUNEL positive cells
Serum ALT lower than in air-exposed mice ([3]; CO 250 ppm, 1 hr pre-treatment and continued, ALT 6-8 hr after TNF-α/D-gal): 74%
Protection against liver damage (serum ALT, histopathology) in absence of iNOS function/expression ([3]; CO 250 ppm, inos−/− mice and wild type mice treated with L-NIL 5 mg/kg i.p. every two hours): unable to protect against liver damage
TNF-α induced apoptosis [4]: inhibited TNF-α induced apoptosis
Liver iNOS expression ([5]; CO 250 ppm 1 hr prior to TNF-α/D-gal, livers six hours later): markedly increased
Liver iNOS expression, CO without TNF-α/D-gal ([5]; immunostaining): modest increase

From patent US9522163B2, “Methods of treating hepatitis” (priority 2002, dated 2016)
